Experimental data from paper PMC9727064, “Performance assessment and economic analysis of a human Liver-Chip for predictive toxicology” (Communications Medicine, 2022).
Like-named read-outs stand apart in the source and are kept apart here.

Experiments:
[1] = cited from earlier work
[2] = tested on: human Liver-Chip (hepatocytes and non-parenchymal cells); settings: human
Summary of the method: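 Brightfield images over three fields of view on days 1, 3 and 7 of each cycle, scored 0–4 by two blinded scorers for cytotoxicity in the hepatocyte (top) and non-parenchymal cell (bottom) channels. Scores reflect monolayer integrity, junction loss, cytoplasmic granulation, debris agglomeration and percentage dead cells.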

[3] = tested on: human Liver-Chip (primary human hepatocytes); assay: Liver-Chip alanine transaminase (ALT) release in top channel effluent (ELISA); type: cell-based
[4] = cited from earlier work; remark: listed apart in the source
[5] = tested on: human Liver-Chip (primary human hepatocytes); assay: Liver-Chip albumin production in top channel effluent (ELISA); type: cell-based
[6] = lowest concentration causing an increase in ALT protein
[7] = concentration causing a 50% reduction in albumin production
[8] = expanded drug list, lowest concentration causing an increase in ALT release
[9] = expanded drug list, lowest multiplier causing a 50% reduction in albumin production

| Compound | Human Cmax Total ([1]; human, total plasma Cmax, ref Xu, J. J. et al. (36)) | Morphology Donor 1 [2] | Morphology Donor 2 [2] | ALT Donor 1 [3, 6] | ALT Donor 2 [3, 6] | Expected Fraction Unbound in Plasma ([4]; plasma, reference data from the literature, no reference) | Albumin IC50 Donor 1 [5, 7] | Albumin IC50 Donor 2 [5, 7] | Human Cmax Total ([1]; human therapeutic total plasma Cmax from literature, ref Sivapalasingam, S. & Steigbigel, N. (67)) | ALT Donor 1 [3, 8] | ALT Donor 2 [3, 8] | Expected Fraction Unbound in Plasma ([4]; human plasma, no reference printed (-)) | Albumin IC50 Donor 1 [5, 9] | Albumin IC50 Donor 2 [5, 9] | Human Cmax Total ([1]; human therapeutic total plasma Cmax from literature, ref Xu, J. J. et al. (36)) | plasma protein bound [4] | Expected Fraction Unbound in Plasma ([4]; human plasma, ref Scott, L. J. (69)) |
| --- | --- | --- | --- | --- | --- | --- | --- | --- | --- | --- | --- | --- | --- | --- | --- | --- | --- |
| Cc1c(C)c2c(c(C)c1O)CCC(C)(COc1ccc(CC3SC(=O)NC3=O)cc1)O2 (stereo not shown) [Troglitazone] | 6.08 µM | 300 multiples of the unbound human Cmax | 300 multiples of the unbound human Cmax | 300 multiples of the unbound human Cmax | 300 multiples of the unbound human Cmax | 0.0011 | 24 multiples of the unbound human Cmax | 122 multiples of the unbound human Cmax | – | – | – | – | – | – | – | – | – |
| CCOC(=O)CN[C@@H](C(=O)N1CC[C@H]1C(=O)NCc1ccc(/C(N)=N\O)cc1)C1CCCCC1 [Ximelagatran] | – | 100 unbound human Cmax multiplier | 300 unbound human Cmax multiplier | – | – | – | – | – | 0.45 µM | 30 unbound human Cmax multiplier | > 300 unbound human Cmax multiplier | 1 | 32 unbound human Cmax multiplier | > 300 unbound human Cmax multiplier | – | – | – |
| CC(c1cc2ccccc2s1)N(O)C(N)=O (stereo not shown) [Zileuton] | – | > 100 unbound human Cmax multiplier | > 300 unbound human Cmax multiplier | – | – | – | – | – | – | > 100 unbound human Cmax multiplier | > 300 unbound human Cmax multiplier | – | > 100 unbound human Cmax multiplier | 210 unbound human Cmax multiplier | 13.1 µM | > 93% | 0.07 |
